Assay: In vitro liver microsomal stability assay
Format: in vitro ADME
Settings: 1 mg per mL liver microsome protein, NADPH-generating system, 5 microgram per mL test compound, about 37° C., 0-60 minutes, LC/MS/MS
Procedure: Liver microsomal stability assays were conducted at 1 mg per mL liver microsome protein with an NADPH-generating system in 2% NaHCO3 (2.2 mM NADPH, 25.6 mM glucose 6-phosphate, 6 units per mL glucose 6-phosphate dehydrogenase and 3.3 mM MgCl2). Test compounds were prepared as solutions in 20% acetonitrile-water and added to the assay mixture (final assay concentration 5 microgram per mL) and incubated at about 37° C. Final concentration of acetonitrile in the assay should be <1%. Aliquots (50 μL) were taken out at times 0, 15, 30, 45, and 60 minutes, and diluted with ice cold acetonitrile (200 μL) to stop the reactions. Samples were centrifuged at 12,000 RPM for about 10 minutes to precipitate proteins. Supernatants were transferred to microcentrifuge tubes and stored for LC/MS/MS analysis of the degradation half-life of the test compounds.

In the case of `Cl.[2H]C([2H])([2H])C(NC(C)C(=O)c1cccc(Cl)c1)(C([2H])([2H])[2H])C([2H])([2H])[2H]` (stereo not shown) [Example 2, 2-(tent-d9-Butylamino)-1-(3-chlorophenyl)propan-1-one Hydrochloride], the “degradation half-life as compared to the non-isotopically enriched compound” value is reported as “improved degradation half-life”.
